Test results: US10647702B2, “Aryl-substituted imidazoles” (St. Jude Children's Research Hospital, priority 2010, dated 2020)

Assays:
[1] = Liver microsomal stability, mouse; type: in vitro ADME; details: for mouse liver microsome t(½): female CD-1 mouse liver microsomes, 37° C.; for CLint scaled at 19.8 µM: female, CD-1, mouse, liver microsomes, pH 7.4, intrinsic clearance calculated from t1/2, read-out: mouse liver microsome CLint′
Description: (§1) 1.582 mL of mouse liver microsome (20 mg/mL, female CD-1 mice, pooled, Fisher Scientific, # NC9567486) was mixed with 0.127 ml of 0.5M EDTA solution and 48.3 ml potassium phosphate buffer (0.1M, pH 7.4, 37° C.) to make 50 ml of mouse liver microsome solution. Human liver microsomal solution was made with human liver microsome (50 pooled mix gender, Fisher Scientific #50-722-516) the same way. 1 volume of 10 mM DMSO compound stock was mixed with 4 volume of acetonitrile to make 2 mM diluted compound stock in DMSO and acetonitrile. 37.83 μL, diluted compound stock was added to 3 mL liver microsomal solution and vortexed to make microsomal solution with compound. 1 ml of liver microsomal solution with compound is added to each well of a master storage plate (pION Inc., MA, #110323). All compounds are in triplicates. Mouse and human liver microsomes were tested side by side on the same plate. 175 μL of each well was dispensed from the master plate into 5 storage plates. For 0 hour time point, 450 pit pre-cooled (4° C.) internal standard (10 μM warfarin in methanol) was added to the first plate before the reaction starts. 5.25 ml of microsome assay solution A (Fisher Scientific, # NC9255727) was combined with 1.05 ml of solution B (Fisher Scientific, # NC9016235) in 14.7 ml of potassium phosphate buffer (0.1 M, pH 7.4). 45 μL of this A+B solution was added to each well of all the 96-well storage plates and mixed with pipette briefly. The plates are sealed, and all plates except 0-hr plate were incubated at 37° C., shaken at a speed of 60 rpm. 0.5 hr, 1 hr, 2 hr and 4 hr time points were taken. At each time point, 450 μL pre-cooled internal standard was added to the plate to quench the reaction. The quenched plate was then centrifuged (model 5810R, Eppendorf, Westbury, N.Y.) at 4000 rpm for 15 minutes. 150 μL supernatant was transferred to a 96-well plate and analyzed by UPLC-MS (Waters Inc., Milford, Mass.). The compounds and internal standard were detected by SIR. The log peak area ratio (compound peak area/internal standard peak area) was plotted vs time (hr) and the slope was determined to calculate the elimination rate constant [k=(−2.303)*slope]. The half life (hr) was calculated as t (1/2)=0.693/k. Intrinsic clearance was calculated as CLint′=(0.693/(t1/2))*(1/microsomal concentration in the reaction solution)*(45 mg microsome/gram liver)*(gram liver/kg b.w.), where microsomal concentration in the reaction solution is 0.5 mg/ml, and gram liver/kg b.w. of CD-1 female mice and human are 52 and 20, respectively.

[2] = Liver microsomal stability, human; type: in vitro ADME; details: for CLint scaled at 19.8 µM: both sexes, human, liver microsomes, pH 7.4, intrinsic clearance calculated from t1/2, read-out: Human liver microsome CLint′; for human liver microsome t(½): pooled human liver microsomes, 37° C.
Description: as §1

[3] = Plasma stability, mouse plasma; type: in vitro ADME; details: 37° C., up to 48 hr
Description: (§2) Compound stocks were 10 mM in DMSO. The internal standard was 10 μM warfarin in methanol. 1.9 ml mouse plasma (Fisher Scientific, catalog #: NC9050370) or pooled human plasma (Innovative Research Inc., catalog # IPLA-1) was added to the columns of 1, 4, 7 and 10 of a 2 ml 96-well deep well plate (pION Inc., MA, #110023); this was the master plate. 1.9 μl compound stock was added to each well with plasmas and mixed well. Using a multi-channel pipette, 600 μl from the columns of 1, 4, 7 and 10 were taken and added into the rest of the columns (fluids in column 1 added to columns 2 and 3, column 4 into 5 and 6, and so on). From the master plate, 65 μl were taken from each well and added into 8 storage plates (pION Inc., MA, #110323), each for a time point. The storage plates was then incubated at 37° C. and shaken at 60 rpm. Samples were taken at 0 min, 30 min, 1 hr, 2 hr, 4 hr, 8 hr, 24 hr and 48 hr. At each time point, 195 μl internal standard was added to quench the reaction. The plates were then centrifuged at 4000 rpm for 15 min and supernatant was analyzed by UPLC-MS. The compound was detected by SIR and quantitation was based on peak area ratio of test compound vs. the internal standard.

[4] = Plasma stability, pooled human plasma; type: in vitro ADME; details: 37° C., up to 48 hr
Description: as §2

[5] = PBS stability; type: physicochemical; details: PBS pH 7.4, 37° C., up to 48 hr
Description: as §2, with “ml PBS (Mediatech Inc., Manassas, Va.,” for “ml mouse plasma (Fisher Scientific,”, “catalog #21-040-CM)” for “catalog #: NC9050370) or pooled human plasma (Innovative Research Inc., catalog # IPLA-1)”, “with […]” for “with plasmas”, “65 pil” for “65 μl”

Compound	mouse liver microsome t(½) [1]	CLint scaled at 19.8 µM [1]	CLint scaled at 19.8 µM [2]	human liver microsome t(½) [2]	mPlasma stability t(½) [3]	hPlasma stability t(½) [4]	PBS pH 7.4 stability t(½) [5]
COc1ccc(C2=N[C@@H](c3cccc(Cl)c3)[C@@H](c3ccc(Cl)cc3)N2C(=O)N2CCNC(=O)C2)c(OC(C)C)c1 [SJ000558295-1]	2.17 h	24.9 mL/min/kg	12.1 mL/min/kg	1.72 h	>48 h	>48 h	>48 hr
COc1ccc(C2=NC(c3cccc(C)c3)C(c3ccc(Cl)cc3)N2C(=O)N2CCNC(=O)C2)c(OC(C)C)c1 (centres unmarked) [SJ000558304-1]	0.73 h	73.9 mL/min/kg	14.2 mL/min/kg	1.46 h	>48 h	>48 h	>48 hr
